# What was measured:
# [1] = test system: Staphylococcus aureus IID 803; experiment: Effect on treatment of general infectious disease; format: in vivo, ddY male mice; settings: IID803, 168 h, S. aureus IID 803, 1.0×10^6 CFU/mouse i.p., oral one hour after infection, survival after one week
# Experimental: Staphylococcus aureus IID 803 (1.0×10^6 CFU/mouse)
# (§1) The test microorganisms were subjected to standing culture in Trypto-Soya Agar "Nissui" (made by Nissui Seiyaku K.K., Japan) at 37° C. for 16 to 18 hours. The culture was then diluted with PBS (Dulbecco's phosphate buffered saline) and mixed with an equivalent amount of 10% (w/v) Mucin (BACTO MUCIN BACTERIOLOGICAL, made by Difco Co.) to prepare a microorganism solution. The thus prepared microorganism solution (0.5 ml each) was intraperitoneally innoculated to ddY male mice (4 weeks age, weighing 20-22 g, 5 mice in each group), to infect the animals. One hour after the infection, the compound (B) of the present invention dissolved in sterilized distilled water or ofloxacin suspended in 0.5% (w/v) aqueous sodium carboxymethyl cellulose solution was orally adiministered to mice.
# (§2) The mice were daily observed for one week, and from the survival number of mice after one week, the 50% effective dose (ED50) was calculated by Weil method.
# bacteria = settings: prior art, U.S. Pat. No. 4,382,892; cited from earlier work
# Enterobacter cloacae 963 = experiment: Minimum inhibitory concentration (MIC); format: cell-based; settings: Enterobacter cloacae 963, Gram -
# Summary of the method: (§3)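 Test compounds were dissolved at 5000 μg/ml (stock) in 0.1N aqueous KOH or in sterilized distilled water, then diluted with sterile water to a 1000 μg/ml standard solution. MICs were determined by the Japan Society of Chemotherapy standard method.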
# [2] = test system: Streptococcus faecalis IID 682; experiment: Minimum inhibitory concentration (MIC); format: cell-based; settings: Enterococcus faecalis, IID682, Streptococcus faecalis IID 682, Gram +
# Summary of the method: as §3
# [3] = test system: Enterobacter aerogenes ATCC 13048; experiment: Minimum inhibitory concentration (MIC); format: cell-based; settings: Klebsiella aerogenes, ATCC13048, Enterobacter aerogenes ATCC 13048, Gram -
# Summary of the method: as §3
# [4] = test system: Pseudomonas aeruginosa IFO 3445; experiment: Minimum inhibitory concentration (MIC); format: cell-based; settings: Pseudomonas aeruginosa, IFO3445, Pseudomonas aeruginosa IFO 3445, Gram -
# Summary of the method: as §3
# [5] = test system: Pseudomonas aeruginosa NCTC 10490; experiment: Minimum inhibitory concentration (MIC); format: cell-based; settings: Pseudomonas aeruginosa, NCTC10490, Pseudomonas aeruginosa NCTC 10490, Gram -
# Summary of the method: as §3
# Proteus vulgaris OX-19 = experiment: Minimum inhibitory concentration (MIC); format: cell-based; settings: OX19; Proteus vulgaris OX-19, Gram -; read-out: Minimum inhibitory concentration (MIC)
# Summary of the method: as §3
# [6] = test system: Morganella morganii IFO 3848; experiment: Minimum inhibitory concentration (MIC); format: cell-based; settings: IFO3848; Morganella morganii IFO 3848, Gram -
# Summary of the method: as §3
# [7] = test system: Pseudomonas aeruginosa E-2; experiment: Minimum inhibitory concentration (MIC); format: cell-based; settings: E2; Pseudomonas aeruginosa E-2, Gram -
# Summary of the method: as §3
# Escherichia coli KC-14 = experiment: Effect on treatment of general infectious disease; format: in vivo, ddY male mice; settings: KC14, 168 h, E. coli KC-14, 1.2×10^4 CFU/mouse i.p., oral one hour after infection, survival after one week
# Experimental: Escherichia coli KC-14 (1.2×10^4 CFU/mouse)
# as §1, §2
compound,measurement,setting,value
"CC1COc2c(N3CCN(C)CC3)c(F)cc3c(=O)c(C(=O)O)cn1c23 (racemic) [Ofloxacin, reference compound]",ED50,[1],11.5 mg/kg
same,antibacterial activity (in words),bacteria,excellent antibacterial activity
same,MIC,Enterobacter cloacae 963,0.2 µg/mL
same,MIC,[2],1.56 µg/mL
same,MIC,[3],0.1 µg/mL
same,MIC,[4],1.56 µg/mL
same,MIC,[5],1.56 µg/mL
same,MIC,Proteus vulgaris OX-19,0.05 µg/mL
same,MIC,[6],0.1 µg/mL
same,MIC,[7],1.56 µg/mL
same,ED50,Escherichia coli KC-14,1.1 mg/kg
